Measured values: US6352722B1, “Derivatized carbohydrates, compositions comprised thereof and methods of use thereof” (Quadrant Holdings Cambridge Limited, priority 1997, dated 2002)

Test: Glass transition temperature (Tg) of derivatized carbohydrates, by DSC
Assay type: physicochemical
Conditions: derivatized carbohydrate alone, Tables 1-4
Excerpt: The reaction product can be characterized structurally by methods known in the art, including, but not limited to, nuclear magnetic resonance spectroscopy (NMR) and its material science properties characterized by differential scanning calorimetry (DSC). The characteristic melting points and Tgs (glass transition temperatures) for the derivatized carbohydrates can also be determined by DSC and other methods known in the art.
The carbohydrate derivatives were routinely synthesized by standard esterification of the carbohydrate with the chloride of the desired hydrocarbon side chain under anhydrous conditions and the resulting derivatives purified by standard techniques of solvent extraction and re-crystallization. For example, trehalose octa-3,3-dimethylbutyrate was synthesized by reacting 3,3,-dimethylbutyroyl chloride with trehalose in anhydrous pyridine, followed by extraction with ether, hydrochloric acid, potassium carbonate solution and water and finally re-crystallized twice from alcohol to yield colorless, needle-like crystals (˜80% yield) of m.pt 138-140° C., αD 112°. Trehalose hexa-3,3-dimethylbutyrate (THEX) can be prepared by protecting the 6,6′-hydroxy group of trehalose with a bulky group such as trityl or t-butyldiphenylsilyl, for example by heating trehalose and trityl chloride in pyridine. The 6,6′-ditrityltrehalose can be acylated with 3,3-dimethylbutyroyl chloride in pyridine to give 6,6′-ditritylhexa-3,3-dimethylbutyryltrehalose. The trityl group can be removed by strong acid, for example hydrogen bromide in acetic acid, to give THEX. TACT can be prepared by acylating THEX with acetic anhydride in pyridine. Suitable work-up yields the HDC in crystalline form. The physical characteristics, melting points and glass transition temperatures (Tg, ° C.) of selected carbohydrate derivatives are shown in Tables 1-5.

| Tg(° C.) | Molecule |
| --- | --- |
| 88 °C | CC(C)(C)C(=O)OC[C@H]1O[C@@H](O[C@H]2[C@H](OC(=O)C(C)(C)C)[C@@H](OC(=O)C(C)(C)C)[C@H](OC(=O)C(C)(C)C)O[C@@H]2COC(=O)C(C)(C)C)[C@H](OC(=O)C(C)(C)C)[C@@H](OC(=O)C(C)(C)C)[C@H]1OC(=O)C(C)(C)C [β-Lactose octapivalate] |
| syrup | CCCC(=O)OC[C@H]1O[C@H](O[C@H]2O[C@H](COC(=O)CCC)[C@@H](OC(=O)CCC)[C@H](OC(=O)CCC)[C@H]2OC(=O)CCC)[C@H](OC(=O)CCC)[C@@H](OC(=O)CCC)[C@@H]1OC(=O)CCC [Trehalose octabutyrate, reference compound] |
| 81 °C | Trehalose pentapivalate |
| 50 °C | CC(=O)O[C@@H]1[C@@H](OC(C)=O)[C@@H](O[C@H]2O[C@H](COC(=O)CC(C)(C)C)[C@@H](OC(C)=O)[C@H](OC(C)=O)[C@H]2OC(C)=O)O[C@H](COC(=O)CC(C)(C)C)[C@H]1OC(C)=O [Trehalose 6,6′-di-(3,3-dimethylbutyrate) hexaacetate] |
| 60 °C | CC(=O)OC[C@H]1O[C@@H](O[C@H]2[C@H](OC(C)=O)[C@@H](OC(C)=O)[C@H](OC(=O)C(C)C)O[C@@H]2COC(C)=O)[C@H](OC(C)=O)[C@@H](OC(C)=O)[C@H]1OC(C)=O [β-Lactose isobutyrate heptaacetate] |
| 67 °C | CC(=O)OC[C@H]1O[C@@H](O[C@H]2[C@H](OC(C)=O)[C@@H](OC(C)=O)C(OC(C)=O)O[C@@H]2COC(C)=O)[C@H](OC(C)=O)[C@@H](OC(C)=O)[C@H]1OC(C)=O (stereo partly drawn) [α, β-Lactose octaacetate, reference compound] |
| 73 °C | Trehalose heptapivalate |
| 77 °C | CO[C@@H]1O[C@H](COC(C)=O)[C@@H](O[C@@H]2O[C@H](COC(C)=O)[C@@H](OC(C)=O)[C@H](OC(C)=O)[C@H]2OC(C)=O)[C@H](OC(C)=O)[C@H]1OC(C)=O [β-Cellobiose methyl heptaacetate] |
| 3 °C | CCC(=O)OCC1O[C@@H](O[C@H]2OC(COC(=O)CC)[C@@H](OC(=O)CC)[C@H](OC(=O)CC)C2OC(=O)CC)C(OC(=O)CC)C(OC(=O)CC)[C@H]1OC(=O)CC (some centres unmarked) [Trehalose octapropionate, reference compound] |
| 43 °C | CCC(=O)OC[C@H]1O[C@H](O[C@H]2O[C@H](COC(=O)CC)[C@@H](OC(C)=O)[C@H](OC(C)=O)[C@H]2OC(C)=O)[C@H](OC(C)=O)[C@@H](OC(C)=O)[C@@H]1OC(C)=O [Trehalose 6,6′-dipropionate hexaactetate] |
| 53 °C | CC(C)(C)CC(=O)OC[C@H]1O[C@@H](O[C@H]2[C@H](OC(=O)CC(C)(C)C)[C@@H](OC(=O)CC(C)(C)C)[C@@H](OC(=O)CC(C)(C)C)O[C@@H]2COC(=O)CC(C)(C)C)[C@H](OC(=O)CC(C)(C)C)[C@@H](OC(=O)CC(C)(C)C)[C@H]1OC(=O)CC(C)(C)C [α-Lactose octa-3,3-dimethyl-butyrate] |
| 41 °C | CC(=O)OCC1OC(OC2OC(COC(C)=O)C(OC(=O)C(C)C)C(OC(C)=O)C2OC(C)=O)C(OC(C)=O)C(OC(C)=O)C1OC(=O)C(C)C (centres unmarked) [Trehalose 4,4′-diisobutyrate hexaacetate] |
| 52 °C | CCO[C@@H]1O[C@H](COC(C)=O)[C@@H](O[C@@H]2O[C@H](COC(C)=O)[C@@H](OC(C)=O)[C@H](OC(C)=O)[C@H]2OC(C)=O)[C@H](OC(C)=O)[C@H]1OC(C)=O [β-Cellobiose ethyl heptaacetate] |
| 15 °C | CCC(=O)OC[C@H]1O[C@@H](O[C@H]2[C@H](OC(=O)CC)[C@@H](OC(=O)CC)[C@H](OC(=O)CC)O[C@@H]2COC(=O)CC)[C@H](OC(=O)CC)[C@@H](OC(=O)CC)[C@@H]1OC(=O)CC [β-Cellobiose octapropionate, reference compound] |
| 42 °C | CCC(=O)OC1C(COC(C)=O)OC(OC2OC(COC(C)=O)C(OC(=O)CC)C(OC(C)=O)C2OC(C)=O)C(OC(C)=O)C1OC(C)=O (centres unmarked) [Trehalose 4,4′-dipropionate hexaactetate] |
| 70 °C | CC(=O)OC[C@H]1O[C@@H](O[C@H]2[C@H](OC(C)=O)[C@@H](OC(C)=O)[C@@H](OC(C)=O)O[C@@H]2COC(C)=O)[C@H](OC(C)=O)[C@@H](OC(C)=O)[C@H]1OC(C)=O [α-Lactose octaacetate, reference compound] |
| 56 °C | CC(=O)OC1C(COC(=O)C(C)(C)C)OC(OC2OC(COC(=O)C(C)(C)C)C(OC(C)=O)C(OC(C)=O)C2OC(C)=O)C(OC(C)=O)C1OC(C)=O (centres unmarked) [Trehalose 6,6′ dipivalate hexaacetate] |
| 96 °C | Trehalose tetrapivalate |
| 63 °C | CC(=O)OC[C@H]1O[C@@H](O[C@H]2[C@H](OC(C)=O)[C@@H](OC(C)=O)[C@H](OC(C)=O)O[C@@H]2COC(C)=O)[C@H](OC(C)=O)[C@@H](OC(C)=O)[C@H]1OC(C)=O [β-Lactose octaacetate, reference compound] |
| 47 °C | CCC(C)(C)C(=O)OC[C@H]1O[C@H](O[C@H]2O[C@H](COC(=O)C(C)(C)CC)[C@@H](OC(C)=O)[C@H](OC(C)=O)[C@H]2OC(C)=O)[C@H](OC(C)=O)[C@@H](OC(C)=O)[C@@H]1OC(C)=O [Trehalose 6,6′di-(2,2-dimethylbutyrate) hexaacetate] |
| 42 °C | CC(=O)OC1C(COC(=O)C(C)C)OC(OC2OC(COC(=O)C(C)C)C(OC(C)=O)C(OC(C)=O)C2OC(C)=O)C(OC(C)=O)C1OC(C)=O (centres unmarked) [Trehalose 6,6′-diisobutyrate hexaacetate] |
| 15 °C | CC(C)C(=O)OCC1O[C@H](OCC2O[C@@H](O[C@]3(COC(=O)C(C)C)O[C@H](COC(=O)C(C)C)[C@@H](OC(=O)C(C)C)[C@H]3OC(=O)C(C)C)C(OC(=O)C(C)C)[C@@H](OC(=O)C(C)C)[C@@H]2OC(=O)C(C)C)C(OC(=O)C(C)C)[C@@H](OC(=O)C(C)C)[C@H]1OC(=O)C(C)C (some centres unmarked) [Raffinose undeca-isobutyrate] |
| 30 °C | CCC(CC)C(=O)OC[C@H]1O[C@H](O[C@H]2O[C@H](COC(=O)C(CC)CC)[C@@H](OC(C)=O)[C@H](OC(C)=O)[C@H]2OC(C)=O)[C@H](OC(C)=O)[C@@H](OC(C)=O)[C@@H]1OC(C)=O [Trehalose 6,6′-di-(2-ethylbutyrate) hexaacetate] |
| 7 °C | CC(C)C(=O)OCC1O[C@@H](O[C@H]2OC(COC(=O)C(C)C)[C@@H](OC(=O)C(C)C)[C@H](OC(=O)C(C)C)C2OC(=O)C(C)C)C(OC(=O)C(C)C)C(OC(=O)C(C)C)[C@H]1OC(=O)C(C)C (some centres unmarked) [Trehalose octaisobutyrate] |
| syrup | CCCCC(=O)OCC1OC(OC2OC(COC(=O)CCCC)C(OC(=O)CCCC)C(OC(=O)CCCC)C2OC(=O)CCCC)C(OC(=O)CCCC)C(OC(=O)CCCC)C1OC(=O)CCCC (centres unmarked) [Trehalose octavalerate, reference compound] |

| Molecule | Tg(° C.) |
| --- | --- |
| CC(=O)O[C@@H]1[C@@H](OC(=O)CC(C)(C)C)[C@@H](OC(=O)CC(C)(C)C)O[C@H](COC(=O)CC(C)(C)C)[C@H]1O[C@@H]1O[C@H](COC(=O)CC(C)(C)C)[C@H](OC(=O)CC(C)(C)C)[C@H](OC(=O)CC(C)(C)C)[C@H]1OC(=O)CC(C)(C)C [α-Lactose 3-acetyl-hepta-3,3-dimethylbutyrate] | 48 °C |
